Laboratory results as given in patent US7897633B2, “Inhibitors of glutaminyl cyclase” (Probiodrug AG, priority 2004, dated 2011).

Assays:
glutaminyl cyclase (QC) = glutaminyl cyclase (QC) (Homo sapiens, UniProt Q16769); experiment: Inhibitor assay for glutaminyl cyclase (QC) activity; details: for Res. Act. (%): rapid test of QC-inhibition: 4 mM inhibitor, substrate concentration at 1 KM
Sequence of glutaminyl cyclase (QC) (Q16769 29-361): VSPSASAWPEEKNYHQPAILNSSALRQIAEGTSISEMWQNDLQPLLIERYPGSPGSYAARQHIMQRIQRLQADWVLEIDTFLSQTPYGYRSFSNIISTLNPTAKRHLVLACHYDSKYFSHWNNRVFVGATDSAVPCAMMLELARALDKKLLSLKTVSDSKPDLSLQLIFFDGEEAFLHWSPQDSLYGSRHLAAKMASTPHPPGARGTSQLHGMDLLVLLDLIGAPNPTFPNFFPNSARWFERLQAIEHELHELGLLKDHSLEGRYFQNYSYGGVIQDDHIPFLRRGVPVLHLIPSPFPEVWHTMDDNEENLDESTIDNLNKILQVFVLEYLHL
Experimental: Excitation/emission wavelengths were 320/410 nm. The assay reactions were initiated by addition of glutaminyl cyclase.
Reactions were carried out at 30° C. utilizing the NOVOStar reader for microplates (BMG labtechnologies). […] Excitation/emission wavelengths were 380/460 nm. The assay reactions were initiated by addition of glutaminyl cyclase. […] The kinetic data were evaluated using GraFit software.
The initial velocities were evaluated and the enzymatic activity was determined from a standard curve of ammonia under assay conditions. All samples were measured at 30° C., using either the [sequence]luor Plus or the Sunrise (both from TECAN) reader for microplates. Kinetic data was evaluated using GraFit software.
For inhibitor testing, the sample composition was the same as described above, except of the putative inhibitory compound added. […] For detailed investigations of the inhibition and determination of Ki-values, influence of the inhibitor on the auxiliary enzymes was investigated first.

SMILES	melting point	Ki (glutaminyl cyclase (QC))	Res. Act. (%) (glutaminyl cyclase (QC))	also measured
CNC(=S)NCCCn1ccnc1	122 to 122.5 °C	–	–	–
COc1ccc(NC(=S)NC[C@H](C)Cn2ccnc2)cc1OC	150.5 to 151.5 °C	–	–	–
COc1ccc(NC(=S)NC[C@@H](C)Cn2ccnc2)cc1OC	155 to 157.5 °C	–	–	–
COc1ccc(NC(=S)NCC2(Cn3ccnc3)CC2)cc1OC	166.5 to 168.5 °C	–	–	–
C[C@@H](C(=S)NCCCn1ccnc1)c1ccccc1	82 to 82.5 °C	–	–	–
C[C@H](C(=S)NCCCn1ccnc1)c1ccccc1	82.5 to 83.5 °C	–	–	–
COc1ccc(CC(=S)NCCCn2ccnc2)cc1OC	148 to 150 °C	–	–	–
COc1ccc(C2(C(=S)NCCCn3ccnc3)CC2)cc1	129 to 129.5 °C	–	–	–
COc1ccc(NC(=S)CCCCn2ccnc2)cc1OC	128 to 128.5 °C	–	–	–
COc1ccc(NC(=S)NCCn2ccnc2)cc1OC	157.5 to 159 °C	–	–	–
COc1ccc(NC(=S)NCCCn2ccnc2)c(OC)c1	120 to 120.5 °C	–	–	–
COc1cc(NC(=S)NCCCn2ccnc2)cc(OC)c1	142 to 143 °C	–	–	–
CC(C)(C)NC(=S)NCCCn1ccnc1	147 to 147.5 °C	–	–	–
COc1cc(NC(=S)NCCCn2ccnc2)cc(OC)c1OC	124.5 to 125.5 °C	–	–	–
CCCCNC(=S)NCCCn1ccnc1 [Example 43]	–	–	53.8%	IC50 (glutaminyl cyclase (QC)): 14 µM
S=C(NCCCn1ccnc1)NCc1ccco1 [Example 45]	–	–	61.4%	IC50 (glutaminyl cyclase (QC)): 10 µM
S=C(NCCCn1ccnc1)NCC1CCCO1 (centres unmarked) [Example 46]	–	–	46.0%	IC50 (glutaminyl cyclase (QC)): 12.8 µM

SMILES	melting point	Ki (glutaminyl cyclase (QC))	Res. Act. (%) (glutaminyl cyclase (QC))	also measured
S=C(NCCCn1ccnc1)NCc1ccc2c(c1)OCO2 [Example 47]	–	–	42.7%	–
S=C(NCCCn1ccnc1)NCCN1CCOCC1 [Example 48]	–	–	55.0%	IC50 (glutaminyl cyclase (QC)): 13.3 µM
COc1cc(NC(=NC#N)NCCCn2ccnc2)cc(OC)c1 [Example 57]	–	0.91 µM	–	–
N#CN=C(NCCCn1ccnc1)Nc1ccc2c(c1)OCO2 [Example 59]	–	0.73 µM	–	–
COc1cc(NC(=NC#N)NCCCn2ccnc2)cc(OC)c1OC [Example 60]	–	0.88 µM	–	–
N#CN=C(NCCCn1ccnc1)NCc1ccccc1 [Example 68]	–	8.17 µM	22.5%	–
COc1ccc(NC(=N)NCCCn2ccnc2)cc1OC [Example 92]	–	204 µM	–	–
CN=C(NCCCn1ccnc1)Nc1ccc(OC)c(OC)c1 [Example 93]	–	3.62 µM	–	–
CCNC(=O)NCCCn1ccnc1 [Example 96]	–	19.2 µM	–	–
O=C(NCCCn1ccnc1)Nc1cc(F)cc2c1OCOC2 [Example 97]	–	–	19.0%	IC50 (glutaminyl cyclase (QC)): 12 µM
CCCCCCCOc1ccc(NC(=O)NCCCn2ccnc2)cc1 [Example 99]	–	–	5.6%	IC50 (glutaminyl cyclase (QC)): 9.9 µM
COc1ccc(NC(=S)NCc2ccccc2Cn2ccnc2)cc1OC [Example 103]	–	4.84 µM	16.27%	–
COc1ccc(NC(=S)NCc2cccc(Cn3ccnc3)c2)cc1OC [Example 104]	–	3.52 µM	–	–
COc1ccc(NC(=S)NCc2ccc(Cn3ccnc3)cc2)cc1OC [Example 105]	–	1.86 µM	–	–
S=C(Cc1ccccc1)NCCCn1ccnc1 [Example 113]	–	4.62 µM	–	–
S=C(Cc1cccs1)NCCCn1ccnc1 [Example 114]	–	3.29 µM	–	–
CCC(C(=S)NCCCn1ccnc1)c1ccccc1 (centres unmarked) [Example 117]	–	3.57 µM	–	–

Now from value to molecule, other results behind:

melting point	Ki (glutaminyl cyclase (QC))	Res. Act. (%) (glutaminyl cyclase (QC))	SMILES	also measured
137.5 to 139 °C	–	–	S=C(NCCCn1ccnc1)C1(c2ccc(Cl)cc2)CCC1	–
140 to 141 °C	–	–	S=C(NCCCn1ccnc1)C1(c2ccc(Cl)cc2)CCCC1	–
162.5 to 164 °C	–	–	COc1ccc(C2(C(=S)NCCCn3ccnc3)CCCCC2)cc1	–
114.5 to 116 °C	–	–	COc1ccc(NC(=S)NCCCCn2ccnc2)cc1OC	–
103 to 103.5 °C	–	–	S=C(NCCCn1ccnc1)Nc1ccc2c(c1)OCCO2	–
115 to 115.6 °C	–	–	S=C(NCCCn1ccnc1)Nc1ccc2c(c1)OCO2	–
89.5 to 90 °C	–	–	COc1cccc(NC(=S)NCCCn2ccnc2)c1	–
127 to 128 °C	–	–	S=C(NCCCn1ccnc1)NCc1ccccc1	–
146.5 to 147 °C	–	–	CN(C)c1ccc(NC(=S)NCCCn2ccnc2)cc1	–
100 to 100.5 °C	–	–	CCc1ccc(NC(=S)NCCCn2ccnc2)cc1	–
154.5 to 155 °C	3.93 µM	38.5%	FC(F)(F)c1ccc(NC(=S)NCCCn2ccnc2)cc1 [Example 8, 1-(3-(1H-imidazol-1-yl)propyl)-3-(4-(trifluoromethyl)phenyl)thiourea]	–
–	1.19 µM	–	COC(=O)c1ccc(NC(=S)NCCCn2ccnc2)cc1 [Example 9]	–
170 to 171 °C	1.7 µM	17.0%	CC(=O)c1ccc(NC(=S)NCCCn2ccnc2)cc1 [Example 10, 1-(3-(1H-imidazol-1-yl)propyl)-3-(4-acetylphenyl)thiourea]	–
–	–	9.7%	COc1ccc(NC(=S)NCCCn2ccnc2)cc1 [Example 11, 1-(3-(1H-imidazol-1-yl)propyl)-3-(4-methoxyphenyl)thiourea]	–
–	0.86 µM	3.64%	S=C(NCCCn1ccnc1)Nc1ccc(-c2cnco2)cc1 [Example 17]	–
–	2.27 µM	8.5%	O=S(=O)(c1ccc(NC(=S)NCCCn2ccnc2)cc1)N1CCCCC1 [Example 20]	–
–	2.89 µM	9.0%	N#Cc1ccc(NC(=S)NCCCn2ccnc2)cc1 [Example 22]	–
–	–	7.2%	CCOc1ccc(NC(=S)NCCCn2ccnc2)cc1 [Example 27, 1-(3-(1H-imidazol-1-yl)propyl)-3-(4-ethoxyphenyl)thiourea]	–
–	3.93 µM	–	COc1ccc(CNC(=S)NCCCn2ccnc2)cc1 [Example 29]	–
140 to 140.5 °C	–	–	CSc1ccc(NC(=S)NCCCn2ccnc2)cc1 [Example 33, 1-(3-(1H-imidazol-1-yl)propyl)-3-(4-(methylthio)phenyl)thiourea]	–
–	2.12 µM	23.5%	S=C(NCCCn1ccnc1)Nc1ccc(I)cc1 [Example 38]	–
–	2.52 µM	–	S=C(NCCCn1ccnc1)Nc1ccc(Br)cc1 [Example 39]	–
–	–	33.1%	S=C(NCCCn1ccnc1)NC1CCCCCCC1 [Example 44]	IC50 (glutaminyl cyclase (QC)): 9.1 µM
–	1.34 µM	–	Cc1ccc(NC(=NC#N)NCCCn2ccnc2)cc1 [Example 75]	–
–	0.62 µM	2.87%	COc1ccc(NC(=O)NCCCn2ccnc2)cc1OC1CCCC1 [Example 98]	–
